Here are results for 1 substance from paper PMC3522636, “4F Decreases IRF5 Expression and Activation in Hearts of Tight Skin Mice” (PLoS ONE, 2012).

Test [1] has as its system Tsk−/+ mice. In words: Transthoracic echocardiography, posterior wall thickness / heart function. The format is in vivo, mouse. The text has this: All experimental procedures and protocols involving mice were reviewed and approved by the Institutional Animal Care and Use Committee (IACUC) of the Medical College of Wisconsin (AUA#512). They also conformed to the rules in the Guiding Principles in the Care and Use of Animals published by the American Physiologic Society and the Guide for the Care and Use of Laboratory Animals published by OLAW. Male Tsk^−/+ and C57Bl/6J mice (6–8 weeks of age) were purchased from Jackson Laboratories (Bar Harbor, ME). Three groups of mice were studied; C57Bl/6J, Tsk^−/+, and Tsk^−/+ mice treated with 4F (1 mg/kg/d, sc) as published previously.
Tsk^−/+ and C57BL/6J mice (n = 6) were anesthetized by isoflurane inhalation (1.50%) and oxygen. They were place on a warming platform supine position. A VisualSonics Vevo 770 high-resolution imaging system (Toronto, Canada) equipped with a 30-MHz transducer (Scanhead RMV 707) was used to perform the transthoracic echocardiography. Two-dimensional guided M-mode LV dimensions were measured and posterior wall thickness was analyzed.

Test [2] relates to Human umbilical vein endothelial cells. In words: Cellular uptake of B-4F in endothelial cells. The format is cell-based. Particulars: B-4F 10 and 50 µg/ml; vs unlabeled 4F; 4 hours (method), 3 hours (Figure 6); confocal. Here is the method: Human umbilical vein endothelial cells (EC; Lonza, Walkersville, MD) were incubated in EGM complete media containing 4F or B-4F (10 and 50 µg/ml) for 4 hours. The EC cultures were washed with PBS, fixed in PBS containing 1% paraformaldehyde, and permeabilized with PBS containing 0.5% Triton-X. The permeabilized sections were incubated with fluorescein-conjugated streptavidin (1 µg/ml) for 30 minutes followed by 3 PBS washes. The fixed and fluorescently labeled slides were mounted in aqueous mounting media and sections inspected and analyzed by confocal microscopy.

“Also recorded” adds a separate entry of the source.

Ac-DWFKAFYDKVAEKFKEAF-NH2 [4F]: the posterior wall thickness result in test [1] (4F 1 mg/kg/d, sc, 6–8 weeks, 4F-treated Tsk−/+ vs untreated Tsk−/+ mice, p<0.05, n = 6, M-mode echocardiography, isoflurane) was “significantly increased in Tsk^−/+ compared to C57Bl/6J (control) and Tsk^−/+ mice with 4F treatment; also recorded: significantly higher in the Tsk^−/+ mice compared to C57Bl/6J and Tsk^−/+ mice treated with 4F; also recorded: significantly improved”. In addition, the “onset of heart failure” value in test [1] (4F treatment of Tsk−/+ mice (Figure 1)) is on record as “appear to delay the onset of heart failure in Tsk^−/+ mice”. In test [2], the “uptake into EC (in words)” value was “enters EC in a concentration-dependent fashion”.
